Where a SMILES comes first, the peptide text is derived from it. [ ]: non-standard residue; d: D form. The star is where a group is joined. NHCH2CH2OH = OCCN*; For = O=C*
Columns and labels:
[1] = H+/Na+ transport assay of bead-derived peptides (one-point); format: biochemical; set-up: key: relative activity; mean of two control wells = 1.00; settings: bead-derived peptide solution, EYPC/EYPG LUVs;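 further: relative to parent gramicidin A activity set to 1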
Method: (§1) Each type of assay must be simplified and miniaturized to assess the activities of the library peptides in a 96-well format for the high-throughput screening.
H+/Na+ transport assay of bead-derived peptides.1,2,3 Trisodium 8-hydroxypyrene-1,3,6-trisulfonate
mini-extruder apparatus (Avanti Polar Lipids).
28.9 µmol) in CHCl3 (225 µL) and egg yolk phosphatidylglycerol (1.20 mg, 1.56 µmol) in CHCl3 (60.0 µL)
The thin film was hydrated and
1.0 mM pyranine) by sonication.
A suspension of the LUVs was immediately
used for the H+/Na+ transport assay.
The diluted solution of peptide
flat-bottom 96-well plate (655086, Greiner bio-one).
was vortexed at room temperature for 30 min.
(5/95, 3.0 µL) and the LUV suspension were mixed in each plate to determine 100% lysis. The untreated
LUV suspension was used to determine 0% lysis.
normalized against 100% lysis by Triton X-100 (Imax) and 0% lysis (I0) as following, where Ix is the
fluorescence intensity (Supplementary Equation 2).
I = 100 × (Ix – I0) / (Imax – I0) (2)
The mean value of the two control wells was set to 1.00. […]

[2] = test system: Streptococcus pyogenes SSI-9; assay: Antibacterial activity assay of bead-derived peptides (three concentrations); format: cell-based; set-up: key: +++: inhibition by the 640-fold diluted peptide solution; ++: inhibition by the 160-fold diluted solution; +: inhibition by the 40-fold diluted solution; -: no inhibition; settings: S. pyogenes, bead-derived peptide solution, three concentrations
Method: as §1
Next, the peptides in groups A and B were subjected to the antibacterial assay and structural determination. Three peptide concentrations were applied to evaluate the growth inhibition of S. pyogenes and determine the antibacterial activity. […] Finally, the structures of the peptides were determined. […]
Antibacterial activity assay of bead-derived peptides. The stock solution of the peptide library was 4- and […]
16-fold diluted with DMSO. The non-diluted stock solution, 4-fold diluted solution, and 16-fold diluted […]
solution were transferred to the 96-well round-bottom plate (3367, Corning, 1.0 µL/well). To the solution of […]
peptide in each well was added a suspension of Streptococcus pyogenes SSI-9 strain in cation adjusted […]
Mueller Hinton Broth [40.0 µL, 2 × 10^5 colony forming units (CFU), 21 g/L Mueller Hinton Broth (Difco), 50 […]
mg/L Ca2+ (adjusted with CaCl2•2H2O), and 25 mg/L Mg2+ (adjusted with MgCl2•6H2O)] supplemented with […]
5% laked horse blood (Nippon Biotest Laboratories). The plate was incubated at 37 °C for 18 h, and the precipitation of the grown cells was examined. […]

[3] = test system: P388 mouse leukemia cells; settings: 92 h
From the text: Each type of assay must be simplified and miniaturized to assess the activities of the library peptides in a 96-well format for the high-throughput screening. […]
Mammalian cytotoxicity assay of bead-derived peptides . P388 cells were obtained from Institute of
Development Aging and Cancer (Tohoku University). The cells were maintained with growth medium
[RPMI1640 with phenol red ( Fujifilm Wako Pure Chemical) supplemented with 10% heat -inactivated fetal
bovine serum, pe nicillin G (100 units/mL), and streptomycin (100 µg/mL)] under atmosphere of 5% CO 2 at
The collected cells were resuspended into
the growth medium at 2 × 10^4 cells/mL. The stock solutions of the peptide library were 250-fold diluted
with the growth medium. Aliquots of the medium (100 µL) containing peptides and the latter medium
containing P388 cells (100 µL) were mixed in a 96-well cell culture plate (TR5003, TrueLine). The final
concentration of P388 cells was 1 × 10^4 cells/mL. After incubation under atmosphere of 5% CO2 at 37 °C
for 92 h, the numbers of viable cells were determined by
2-(4-iodophenyl)-3-(4-nitrophenyl)-5-(2,4-disulfophenyl)-2H-tetrazolium, monosodium salt (WST-1) assay.
A solution of 1-methoxy-5-methylphenazinium methyl sulfate (1-methoxy PMS) and WST-1 in the growth
medium (1-methoxy PMS 0.70 mg/mL in Milli-Q/WST-1 3.6 mg/mL in pH 7.4 HEPES buffer = 1/9) was
added to each well of the plate (10.0 µL/well). The plate was incubated for 4 h under atmosphere of 5% CO2
at 37 °C. The absorbance of each well at 415 nm was measured using a Benchmark microplate reader
(Bio-Rad). The cytotoxicities were evaluated as cell viability (%). […]

SMILES	H+/Na+ transport activity normalized against the value of 1 (1.00) [1]	antibacterial activity [2]	cell viability/% [3] [%]
CNC(=O)C[C@@H](NC(=O)[C@@H](NC(=O)[C@@H](CC(C)C)NC(=O)[C@H](C)NC(=O)[C@@H](CC(C)C)NC(=O)[C@H](C)NC(=O)CNC(=O)[C@@H](NC=O)C(C)C)C(C)C)C(=O)N[C@@H](Cc1c[nH]c2ccccc12)C(=O)N[C@H](CC(C)C)C(=O)N[C@@H](Cc1c[nH]c2ccccc12)C(=O)N[C@H](CC(C)C)C(=O)N[C@@H](Cc1c[nH]c2ccccc12)C(=O)N[C@@H](C(=O)N[C@@H](Cc1c[nH]c2ccccc12)C(=O)NCCO)[C@H](C)O [compound 638] (For-VGA[dL]A[dL]V[dD](NHMe)W[dL]W[dL]W[dT]W-NHCH2CH2OH)	1.01	-	100.0
CC(C)C[C@@H](NC(=O)[C@H](C)NC(=O)CNC(=O)[C@@H](NC=O)C(C)C)C(=O)N[C@@H](C)C(=O)N[C@H](CC(C)C)C(=O)N[C@H](C(=O)N[C@H](CC(C)C)C(=O)N[C@@H](Cc1c[nH]c2ccccc12)C(=O)N[C@H](CC(C)C)C(=O)N[C@@H](Cc1c[nH]c2ccccc12)C(=O)N[C@@H](C(=O)N[C@@H](Cc1c[nH]c2ccccc12)C(=O)N[C@H](CC(C)C)C(=O)N[C@@H](Cc1c[nH]c2ccccc12)C(=O)NCCO)C(C)C)C(C)C [compound 646] (For-VGA[dL]A[dL]V[dL]W[dL]W[dV]W[dL]W-NHCH2CH2OH)	1.11	+	0.2
CC(C)C[C@@H](NC(=O)[C@H](C)NC(=O)[C@H](NC(=O)[C@H](C)NC(=O)CNC(=O)[C@@H](NC=O)C(C)C)C(C)C)C(=O)N[C@H](C(=O)N[C@@H](C(=O)N[C@@H](Cc1c[nH]c2ccccc12)C(=O)N[C@H](CC(C)C)C(=O)N[C@@H](Cc1c[nH]c2ccccc12)C(=O)N[C@@H](C(=O)N[C@@H](Cc1c[nH]c2ccccc12)C(=O)N[C@H](CC(C)C)C(=O)N[C@@H](Cc1c[nH]c2ccccc12)C(=O)NCCO)C(C)C)C(C)C)C(C)C [compound 660] (For-VGA[dV]A[dL]V[dV]W[dL]W[dV]W[dL]W-NHCH2CH2OH)	1.06	++	15.6
CC(C)C[C@@H](NC(=O)[C@H](Cc1c[nH]c2ccccc12)NC(=O)[C@@H](CC(C)C)NC(=O)[C@H](Cc1c[nH]c2ccccc12)NC(=O)[C@@H](CC(C)C)NC(=O)[C@H](Cc1c[nH]c2ccccc12)NC(=O)[C@H](NC(=O)[C@@H](NC(=O)[C@H](NC(=O)[C@H](C)NC(=O)[C@H](NC(=O)[C@H](C)NC(=O)CNC(=O)[C@@H](NC=O)C(C)C)C(C)C)C(C)C)C(C)C)C(C)C)C(=O)N[C@@H](Cc1c[nH]c2ccccc12)C(=O)NCCO [compound 662] (For-VGA[dV]A[dV]V[dV]W[dL]W[dL]W[dL]W-NHCH2CH2OH)	1.04	+++	1.5
CC(C)C[C@@H](NC(=O)[C@H](Cc1c[nH]c2ccccc12)NC(=O)[C@H](NC(=O)[C@H](Cc1c[nH]c2ccccc12)NC(=O)[C@H](NC(=O)[C@@H](NC(=O)[C@H](NC(=O)[C@H](C)NC(=O)[C@H](NC(=O)[C@H](C)NC(=O)CNC(=O)[C@@H](NC=O)C(C)C)C(C)C)C(C)C)C(C)C)C(C)C)C(C)C)C(=O)N[C@@H](Cc1c[nH]c2ccccc12)C(=O)N[C@@H](C(=O)N[C@@H](Cc1c[nH]c2ccccc12)C(=O)NCCO)C(C)C [compound 676] (For-VGA[dV]A[dV]V[dV]W[dV]W[dL]W[dV]W-NHCH2CH2OH)	1.02	++	100.0
CC(C)C[C@@H](NC(=O)[C@H](C)NC(=O)CNC(=O)[C@@H](NC=O)C(C)C)C(=O)N[C@@H](C)C(=O)N[C@@H](C(=O)N[C@H](C(=O)N[C@@H](C(=O)N[C@@H](Cc1c[nH]c2ccccc12)C(=O)N[C@@H](C(=O)N[C@@H](Cc1c[nH]c2ccccc12)C(=O)N[C@@H](C(=O)N[C@@H](Cc1c[nH]c2ccccc12)C(=O)N[C@H](CC(C)C)C(=O)N[C@@H](Cc1c[nH]c2ccccc12)C(=O)NCCO)C(C)C)C(C)C)[C@H](C)O)C(C)C)C(C)C [compound 809] (For-VGA[dL]A[dV]V[dT]W[dV]W[dV]W[dL]W-NHCH2CH2OH)	1.13	-	100.0
CC(C)C[C@@H](NC(=O)[C@H](C)NC(=O)[C@H](NC(=O)[C@H](C)NC(=O)CNC(=O)[C@@H](NC=O)C(C)C)C(C)C)C(=O)N[C@H](C(=O)N[C@H](CC(C)C)C(=O)N[C@@H](Cc1c[nH]c2ccccc12)C(=O)N[C@@H](C(=O)N[C@@H](Cc1c[nH]c2ccccc12)C(=O)N[C@H](CC(C)C)C(=O)N[C@@H](Cc1c[nH]c2ccccc12)C(=O)N[C@@H](C(=O)N[C@@H](Cc1c[nH]c2ccccc12)C(=O)NCCO)C(C)C)C(C)C)C(C)C [compound 906] (For-VGA[dV]A[dL]V[dL]W[dV]W[dL]W[dV]W-NHCH2CH2OH)	1.06	+	100.0
CC(C)C[C@@H](NC(=O)[C@H](Cc1c[nH]c2ccccc12)NC(=O)[C@H](NC(=O)[C@H](Cc1c[nH]c2ccccc12)NC(=O)[C@H](NC(=O)[C@H](Cc1c[nH]c2ccccc12)NC(=O)[C@H](NC(=O)[C@@H](NC(=O)[C@H](NC(=O)[C@H](C)NC(=O)[C@H](NC(=O)[C@H](C)NC(=O)CNC(=O)[C@@H](NC=O)C(C)C)C(C)C)C(C)C)C(C)C)C(C)C)C(C)C)C(C)C)C(=O)N[C@@H](Cc1c[nH]c2ccccc12)C(=O)NCCO [compound 1004] (For-VGA[dV]A[dV]V[dV]W[dV]W[dV]W[dL]W-NHCH2CH2OH)	1.04	+	60.4
CC(C)C[C@@H](NC(=O)[C@H](Cc1c[nH]c2ccccc12)NC(=O)[C@H](NC(=O)[C@H](Cc1c[nH]c2ccccc12)NC(=O)[C@@H](CC(C)C)NC(=O)[C@H](Cc1c[nH]c2ccccc12)NC(=O)[C@@H](CC(C)C)NC(=O)[C@@H](NC(=O)[C@H](NC(=O)[C@H](C)NC(=O)[C@H](NC(=O)[C@H](C)NC(=O)CNC(=O)[C@@H](NC=O)C(C)C)C(C)C)C(C)C)C(C)C)[C@H](C)O)C(=O)N[C@@H](Cc1c[nH]c2ccccc12)C(=O)NCCO [compound 1251] (For-VGA[dV]A[dV]V[dL]W[dL]W[dT]W[dL]W-NHCH2CH2OH)	1.00	+	52.9
CC(C)C[C@@H](NC(=O)[C@H](C)NC(=O)[C@H](NC(=O)[C@H](C)NC(=O)CNC(=O)[C@@H](NC=O)C(C)C)[C@H](C)O)C(=O)N[C@H](C(=O)N[C@H](CC(C)C)C(=O)N[C@@H](Cc1c[nH]c2ccccc12)C(=O)N[C@@H](C(=O)N[C@@H](Cc1c[nH]c2ccccc12)C(=O)N[C@H](CC(C)C)C(=O)N[C@@H](Cc1c[nH]c2ccccc12)C(=O)N[C@@H](C(=O)N[C@@H](Cc1c[nH]c2ccccc12)C(=O)NCCO)C(C)C)[C@H](C)O)C(C)C [compound 1284] (For-VGA[dT]A[dL]V[dL]W[dT]W[dL]W[dV]W-NHCH2CH2OH)	1.06	-	71.2
